pIC50: −log10 of the molar value.
Test system: RS4;11 cells
Test: Cell viability assay (CellTiter-Glo) in RS4;11 cells
Format: cell-based
Conditions: Homo sapiens, 72 h; RS4;11 ALL cells treated for three days; read-out: cell viability inhibition IC50
Procedure, shortened: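 RS4;11 cells seeded at 5000 per well, exposed for 3 days to 8- or 12-point 3-fold serial dilutions. Viability read by CellTiter-Glo luminescence; IC50 fitted by nonlinear least-squares regression.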

Structure (SMILES) | pIC50
O=C(CN1CCC(n2cc(-c3cnc4cccc(-c5cc(F)c(CN6CCOCC6)c(F)c5)c4n3)cn2)CC1)NCCCCCCCCNc1ccc2c(c1)C(=O)N(C1CCC(=O)NC1=O)C2=O (centres unmarked) [JA-180, 2-(4-(4-(8-(3,5-difluoro-4-(morpholinomethyl)phenyl)quinoxalin-2-yl)-1H-pyrazol-1-yl)piperidin-1-yl)-N-(8-((2-(2,6-dioxopiperidin-3-yl)-1,3-dioxoisoindolin-5-yl)amino)octyl)acetamide] | > 7.00

Same assay, conditions: Homo sapiens, 72 h; RS4;11 cells; cell viability, 3 days, CellTiter-Glo; read-out: IC50

Structure (SMILES) | pIC50
O=C(CN1CCC(n2cc(-c3cnc4cccc(-c5cc(F)c(CN6CCOCC6)c(F)c5)c4n3)cn2)CC1)NCCCNc1ccc2c(c1)C(=O)N(C1CCC(=O)NC1=O)C2=O (centres unmarked) [JA-175, 2-(4-(4-(8-(3,5-Difluoro-4-(morpholinomethyl)phenyl)quinoxalin-2-yl)-1H-pyrazol-1-yl)piperidin-1-yl)-N-(3-((2-(2,6-dioxopiperidin-3-yl)-1,3-dioxoisoindolin-5-yl)amino)propyl)acetamide] | 6.89
Cc1cnc(Nc2ccc(N3CCN(C(=O)CCOCCOCCOCCOCCNc4cccc5c4C(=O)N(C4CCC(=O)NC4=O)C5=O)CC3)cc2)nc1Nc1cccc(S(=O)(=O)NC(C)(C)C)c1 (centres unmarked) [JA-020, N-(tert-Butyl)-3-((2-((4-(4-(1-((2-(2,6-dioxopiperidin-3-yl)-1,3-dioxoisoindolin-4-yl)amino)-3,6,9,12-tetraoxapentadecan-15-oyl)piperazin-1-yl)phenyl)amino)-5-methylpyrimidin-4-yl)amino)benzenesulfonamide] | 6.20
CS(=O)(=O)c1ccc(-c2cccc3nc(Nc4ccc(N5CCN(CC(=O)NCCOCCOCCNc6ccc7c(c6)C(=O)N(C6CCC(=O)NC6=O)C7=O)CC5)cc4)nn23)cc1 (centres unmarked) [JA-208, N-(2-(2-(2-((2-(2,6-Dioxopiperidin-3-yl)-1,3-dioxoisoindolin-5-yl)amino)ethoxy)ethoxy)ethyl)-2-(4-(4-((5-(4-(methylsulfonyl)phenyl)-[1,2,4]triazolo[1,5-a]pyridin-2-yl)amino)phenyl)piperazin-1-yl)acetamide] | 5.48
Cc1ncsc1-c1ccc(CNC(=O)[C@@H]2C[C@@H](O)CN2C(=O)[C@@H](NC(=O)CCCCCCCCC(=O)N2CCC(n3cc(-c4cnc5cccc(-c6cc(F)c(CN7CCOCC7)c(F)c6)c5n4)cn3)CC2)C(C)(C)C)cc1 [JA-042, (2S,4R)-1-[(2S)-2-[[10-[4-[4-[8-[3,5-Difluoro-4-(morpholinomethyl)phenyl]quinoxalin-2-yl]pyrazol-1-yl]-1-piperidyl]-10-oxo-decanoyl]amino]-3,3-dimethyl-butanoyl]-4-hydroxy-N-[[4-(4-methylthiazol-5-yl)phenyl]methyl]pyrrolidine-2-carboxamide] | < 5.00
Cc1cnc(Nc2ccc(N3CCN(CC(=O)NCCOCCOCCOCCOCCC(=O)NC(C(=O)N4C[C@H](O)C[C@H]4C(=O)NCc4ccc(-c5scnc5C)cc4)C(C)(C)C)CC3)cc2)nc1Nc1cccc(S(=O)(=O)NC(C)(C)C)c1 (stereo in doubt) [JA-222, (2S,4R)-1-((S)-20-(tert-butyl)-1-(4-(4-((4-((3-(N-(tert-butyl)sulfamoyl)phenyl)amino)-5-methylpyrimidin-2-yl)amino)phenyl)piperazin-1-yl)-2,18-dioxo-6,9,12,15-tetraoxa-3,19-diazahenicosan-21-oyl)-4-hydroxy-N-(4-(4-methylthiazol-5-yl)benzyl)pyrrolidine-2-carboxamide] | < 5.00
Cc1cnc(Nc2ccc(N3CCN(C(=O)CCCCCNc4ccc5c(c4)C(=O)N(C4CCC(=O)NC4=O)C5=O)CC3)cc2)nc1Nc1cccc(S(=O)(=O)NC(C)(C)C)c1 (centres unmarked) [JA-229, N-(tert-butyl)-3-((2-((4-(4-(6-((2-(2,6-dioxopiperidin-3-yl)-1,3-dioxoisoindolin-5-yl)amino)hexanoyl)piperazin-1-yl)phenyl)amino)-5-methylpyrimidin-4-yl)amino)benzenesulfonamide] | < 5.00
Cc1cnc(Nc2ccc(N3CCN(CC(=O)NCCOCCOCCOCCNc4ccc5c(c4)C(=O)N(C4CCC(=O)NC4=O)C5=O)CC3)cc2)nc1Nc1cccc(S(=O)(=O)NC(C)(C)C)c1 (centres unmarked) [JA-239, 2-(4-(4-((4-((3-(N-(tert-butyl)sulfamoyl)phenyl)amino)-5-methylpyrimidin-2-yl)amino)phenyl)piperazin-1-yl)-N-(2-(2-(2-(2-((2-(2,6-dioxopiperidin-3-yl)-1,3-dioxoisoindolin-5-yl)amino)ethoxy)ethoxy)ethoxy)ethyl)acetamide] | 6.13
O=C1CCC(N2C(=O)c3ccc(NCCCCCCN4CCC(n5cc(-c6cnc7cccc(-c8cc(F)c(CN9CCOCC9)c(F)c8)c7n6)cn5)CC4)cc3C2=O)C(=O)N1 (centres unmarked) [JA-266, 5-((6-(4-(4-(8-(3,5-Difluoro-4-(morpholinomethyl)phenyl)quinoxalin-2-yl)-1H-pyrazol-1-yl)piperidin-1-yl)hexyl)amino)-2-(2,6-dioxopiperidin-3-yl)isoindoline-1,3-dione] | 6.52
O=C1CCC(N2C(=O)c3ccc(NCC(=O)N4CCC(n5cc(-c6cnc7cccc(-c8cc(F)c(CN9CCOCC9)c(F)c8)c7n6)cn5)CC4)cc3C2=O)C(=O)N1 (centres unmarked) [JA-191] | 5.02
Cc1cnc(Nc2ccc(N3CCN(C(=O)CCCC(=O)N[C@H](C(=O)N4C[C@H](O)C[C@H]4C(=O)NCc4ccc(-c5scnc5C)cc4)C(C)(C)C)CC3)cc2)nc1Nc1cccc(S(=O)(=O)NC(C)(C)C)c1 [JA-023, (2S,4R)-1-((S)-2-(5-(4-(4-((4-((3-(N-(tert-Butyl)sulfamoyl)phenyl)amino)-5-methylpyrimidin-2-yl)amino)phenyl)piperazin-1-yl)-5-oxopentanamido)-3,3-dimethylbutanoyl)-4-hydroxy-N-(4-(4-methylthiazol-5-yl)benzyl)pyrrolidine-2-carboxamide] | < 5.00
CS(=O)(=O)c1ccc(-c2cccc3nc(Nc4ccc(N5CCN(C(=O)CCOCCOCCOCCOCCOCCNc6cccc7c6C(=O)N(C6CCC(=O)NC6=O)C7=O)CC5)cc4)nn23)cc1 (centres unmarked) [JA-077, 2-(2,6-Dioxo-piperidin-3-yl)-4-(2-{2-[2-(2-{2-[3-(4-{4-[5-(4-methanesulfonyl-phenyl)-[1,2,4]triazolo[1,5-a]pyridin-2-ylamino]-phenyl}-piperazin-1-yl)-3-oxo-propoxy]-ethoxy}-ethoxy)-ethoxy]-ethoxy}-ethylamino)-isoindole-1,3-dione] | 6.39
O=C(CN1CCC(n2cc(-c3cnc4cccc(-c5cc(F)c(CN6CCOCC6)c(F)c5)c4n3)cn2)CC1)NCCCCNc1ccc2c(c1)C(=O)N(C1CCC(=O)NC1=O)C2=O (centres unmarked) [JA-176, 2-(4-(4-(8-(3,5-Difluoro-4-(morpholinomethyl)phenyl)quinoxalin-2-yl)-1H-pyrazol-1-yl)piperidin-1-yl)-N-(4-((2-(2,6-dioxopiperidin-3-yl)-1,3-dioxoisoindolin-5-yl)amino)butyl)acetamide] | 5.55
Cc1ncsc1-c1ccc(CNC(=O)[C@@H]2C[C@@H](O)CN2C(=O)[C@@H](NC(=O)CCCCCCCNC(=O)CN2CCC(n3cc(-c4cnc5cccc(-c6cc(F)c(CN7CCOCC7)c(F)c6)c5n4)cn3)CC2)C(C)(C)C)cc1 [JA-156, (2S,4R)-1-((S)-2-(8-(2-(4-(4-(8-(3,5-Difluoro-4-(morpholinomethyl)phenyl)quinoxalin-2-yl)-1H-pyrazol-1-yl)piperidin-1-yl)acetamido)octanamido)-3,3-dimethylbutanoyl)-4-hydroxy-N-(4-(4-methylthiazol-5-yl)benzyl)pyrrolidine-2-carboxamide] | 5.44
Cc1cnc(Nc2ccc(N3CCN(CC(=O)NCCCCCCCNc4ccc5c(c4)C(=O)N(C4CCC(=O)NC4=O)C5=O)CC3)cc2)nc1Nc1cccc(S(=O)(=O)NC(C)(C)C)c1 (centres unmarked) [JA-246, 2-(4-(4-((4-((3-(N-(tert-butyl)sulfamoyl)phenyl)amino)-5-methylpyrimidin-2-yl)amino)phenyl)piperazin-1-yl)-N-(7-((2-(2,6-dioxopiperidin-3-yl)-1,3-dioxoisoindolin-5-yl)amino)heptyl)acetamide] | 6.64
O=C1CCC(N2C(=O)c3ccc(NCCC(=O)N4CCC(n5cc(-c6cnc7cccc(-c8cc(F)c(CN9CCOCC9)c(F)c8)c7n6)cn5)CC4)cc3C2=O)C(=O)N1 (centres unmarked) [JA-190, 5-((3-(4-(4-(8-(3,5-Difluoro-4-(morpholinomethyl)phenyl)quinoxalin-2-yl)-1H-pyrazol-1-yl)piperidin-1-yl)-3-oxopropyl)amino)-2-(2,6-dioxopiperidin-3-yl)isoindoline-1,3-dione] | 5.29
CS(=O)(=O)c1ccc(-c2cccc3nc(Nc4ccc(N5CCN(C(=O)CCCCNc6cccc7c6C(=O)N(C6CCC(=O)NC6=O)C7=O)CC5)cc4)nn23)cc1 (centres unmarked) [JA-011, 2-(2,6-Dioxo-piperidin-3-yl)-4-[5-(4-{4-[5-(4-methanesulfonyl-phenyl)-[1,2,4]triazolo[1,5-a]pyridin-2-ylamino]-phenyl}-piperazin-1-yl)-5-oxo-pentylamino]-isoindole-1,3-dione] | 5.52
Cc1cnc(Nc2ccc(N3CCN(CC(=O)NCCOCCOCCC(=O)N[C@H](C(=O)N4C[C@H](O)C[C@H]4C(=O)NCc4ccc(-c5scnc5C)cc4)C(C)(C)C)CC3)cc2)nc1Nc1cccc(S(=O)(=O)NC(C)(C)C)c1 [JA-219, (2S,4R)-1-((S)-14-(tert-butyl)-1-(4-(4-((4-((3-(N-(tert-butyl)sulfamoyl)phenyl)amino)-5-methylpyrimidin-2-yl)amino)phenyl)piperazin-1-yl)-2,12-dioxo-6,9-dioxa-3,13-diazapentadecan-15-oyl)-4-hydroxy-N-(4-(4-methylthiazol-5-yl)benzyl)pyrrolidine-2-carboxamide] | < 5.00
O=C(CN1CCC(n2cc(-c3cnc4cccc(-c5cc(F)c(CN6CCOCC6)c(F)c5)c4n3)cn2)CC1)NCCCCCCCCNc1ccc2c(c1)C(=O)N(C1CCC(=O)NC1=O)C2=O (centres unmarked) [JA-180, 2-(4-(4-(8-(3,5-difluoro-4-(morpholinomethyl)phenyl)quinoxalin-2-yl)-1H-pyrazol-1-yl)piperidin-1-yl)-N-(8-((2-(2,6-dioxopiperidin-3-yl)-1,3-dioxoisoindolin-5-yl)amino)octyl)acetamide] | 7.05
O=C1CCC(N2C(=O)c3cccc(NCCOCCOCCOCCC(=O)N4CCC(n5cc(-c6cnc7cccc(-c8cc(F)c(CN9CCOCC9)c(F)c8)c7n6)cn5)CC4)c3C2=O)C(=O)N1 (centres unmarked) [JA-049, 4-[2-[2-[2-[3-[4-[4-[8-[3,5-Difluoro-4-(morpholinomethyl)phenyl]quinoxalin-2-yl]pyrazol-1-yl]-1-piperidyl]-3-oxo-propoxy]ethoxy]ethoxy]ethylamino]-2-(2,6-dioxo-3-piperidyl)isoindoline-1,3-dione] | 5.90
